Test results reported in patent publication US12281138B2, “5′-cap-trinucleotide- or higher oligonucleotide compounds and their use in stabilizing RNA, expressing proteins in therapy” (BioNTech RNA Pharmaceuticals GmbH, priority 2018, dated 2025).

Legend:
[1] = tested on: human immature dendritic cells (hiDCs); experiment: Luciferase reporter mRNA translation in human immature dendritic cells; assay type: cell-based; conditions: co-transcriptionally capped Luciferase mRNA, 700 ng per well, liposome formulated, recorded over 72 h
Procedure: As a functional assay of cap analog incorporation, and as a test of translatability of the resulting cap structure, differently capped mRNA encoding a Luciferase reporter was transfected into human immature dendritic cells (hiDCs). For that, 700 ng capped RNA per well were formulated with liposomes as described in Kranz et al., Nature 534, 396-401 (2016), and added to a 96-well containing 5E04 hiDCs. Subsequently, reporter activity was recorded over 72 h.

[2] = tested on: Balb/c mice; experiment: Luciferase mRNA expression in vivo, bioluminescence imaging after intravenous application; conditions: 10 μg RNA per mouse, i.v.

Row | Substance | translation in hiDCs (luciferase reporter activity) relative to mRNA capped with the corresponding D1 or D2 diastereomer of beta-S-ARCA [1] | in vivo luciferase protein levels compared to all cap0 RNAs ([2]; all time points) | in vivo luciferase protein levels compared to enzymatically capped cap1 mRNA ([2]; at the other time points)
1 | m2^7,2′-OGppSpm^2′-OGpG [Compound 1 (D1)] | comparable levels |  | 
2 | m2^7,2′-OGppSpm^2′-OGpG [Compound 1] |  | always higher levels | only slightly lower levels
